Data reported in PMC8388771, “Cationic Peptidomimetic Amphiphiles Having a N-Aryl- or N-Naphthyl-1,2,3-Triazole Core Structure Targeting Clostridioides (Clostridium) difficile: Synthesis, Antibacterial Evaluation, and an In Vivo C. difficile Infection Model” (Antibiotics, 2021).
≈ marks a conversion by molar mass, not a printed value. Read-outs that look alike come from different tables or passages of the source.

Experiments:
C. difficile ATCC 700057 = assay: Primary MIC assay, C. difficile ATCC 700057; format: cell-based, Clostridioides difficile; details: Clostridioides difficile, ATCC700057; Table 1; read-out: MIC C. difficile ATCC 700057
Description: (§1) The N-arytriazole and N-naphthyltriazole peptidomimetics were subjected to antimicrobial screening. […] Vancomycin, colistin, fluconazole, and tamoxifen were used as positive controls (see Table 1 for details).
(§2) Primary screening (Gram-positive bacteria). Primary MIC assays were performed as described by the Clinical and Laboratory Standards Institute for aerobic and anaerobic bacteria. MIC values for vancomycin were within acceptable QC ranges.

C. difficile 132 (RT027) = assay: Primary MIC assay, C. difficile 132 (RT027); format: cell-based, Clostridioides difficile; details: Clostridioides difficile; Table 1; read-out: MIC C. difficile 132 (RT027)
Description: as §1, §2

S. aureus ATCC 29213 = assay: Primary MIC assay, S. aureus ATCC 29213; format: cell-based; details: Staphylococcus aureus, ATCC29213; Table 1; read-out: MIC S. aureus ATCC 29213
Description: as §1, §2

S. aureus NCTC 10442 = assay: Primary MIC assay, S. aureus NCTC 10442 (MRSA); format: cell-based; details: Staphylococcus aureus, MRSA
Description: as §1, §2

E. faecalis ATCC 29212 = assay: Primary MIC assay, E. faecalis ATCC 29212; format: cell-based, Enterococcus faecalis; details: Enterococcus faecalis, ATCC29212; Table 1; read-out: MIC E. faecalis ATCC 29212
Description: as §1, §2

S. pneumoniae ATCC 49619 = assay: Primary MIC assay, S. pneumoniae ATCC 49619; format: cell-based, Streptococcus pneumoniae; details: Streptococcus pneumoniae, ATCC49619; Table 1; read-out: MIC S. pneumoniae ATCC 49619
Description: as §1, §2

E. coli ATCC 25922 [1] = assay: Primary MIC assay, E. coli ATCC 25922; format: cell-based; details: Table 1; for MIC: Escherichia coli, ATCC25922, read-out: MIC E. coli ATCC 25922
[2] = Cytotoxicity (CC50) assay by CO-ADD; format: cell-based, human; details: human, HEK293 cells (ATCC CRL-1573); Table 1; cytotoxicity on HEK293 cells, tested at ≤32 µg/mL
Excerpt: as §1
(§3) Secondary screening (MRSA and Gram-negative bacteria) and cytotoxicity assay–performed by the Community for Open Antimicrobial Drug Discovery (CO-ADD). Samples were provided to CO-ADD [29] for antimicrobial screening by whole cell growth inhibition assays.
Cytotoxicity Assay. These were performed as described previously.

human erythrocytes = assay: Hemolysis assay, HC50 determination; format: cell-based
Description: Hemolysis assay (human erythrocytes)–HC50 determination. These were performed as described previously.

S. aureus ATCC 43300 = assay: CO-ADD MIC assay, S. aureus ATCC 43300 (MRSA); format: cell-based; details: Staphylococcus aureus, MRSA, read-out: MIC S. aureus ATCC 43300
Excerpt: as §1, §3
(§4) Bacterial Inhibition–MIC Assay. These were performed as described previously.

P. aeruginosa ATCC 27853 = assay: CO-ADD MIC assay, P. aeruginosa ATCC 27853; format: cell-based; details: for MIC: Pseudomonas aeruginosa, ATCC27853, Table S1
Excerpt: as §1, §3, §4

[3] = tested on: K. pneumoniae ATCC 700603; assay: CO-ADD MIC assay, K. pneumoniae ATCC 700603; format: cell-based; details: for MIC: Klebsiella pneumoniae, ATCC700603, Table S1, multi-drug resistant
Excerpt: as §1, §3, §4

A. baumannii ATCC 19606 = assay: CO-ADD MIC assay, A. baumannii ATCC 19606; format: cell-based; details: for MIC: Acinetobacter baumannii, ATCC19606, Table S1
Excerpt: as §1, §3, §4

E. coli ATCC 25922 [4] = assay: CO-ADD MIC assay, E. coli ATCC 25922; format: cell-based; details: for MIC: Escherichia coli, ATCC25922, Table S1
Excerpt: as §1, §3, §4

C. albicans ATCC 90028 = assay: CO-ADD MIC assay, C. albicans ATCC 90028; format: cell-based; details: Candida albicans, ATCC90028, Table S1
Excerpt: as §1, §3

[5] = tested on: Cryptococcus neoformans var. grubii ATCC 208821; assay: CO-ADD MIC assay, C. neoformans var. grubii ATCC 208821; format: cell-based; details: for MIC: Cryptococcus neoformans, ATCC208821, Table S1
Excerpt: as §1, §3

[6] = Table 1, read-out: MIC S. aureus NCTC 10442
[7] = Table 1, lysis of human erythrocytes
[8] = Table S1, footnote says lysis of sheep erythrocytes

MIC (C. difficile ATCC 700057) | MIC (C. difficile 132 (RT027)) | MIC (S. aureus ATCC 29213) | MIC (S. aureus NCTC 10442; [6]) | MIC (E. faecalis ATCC 29212) | MIC (S. pneumoniae ATCC 49619) | MIC (E. coli ATCC 25922 [1]) | MIC (S. aureus ATCC 43300; Table S1, CO-ADD) | MIC (P. aeruginosa ATCC 27853) | MIC [3] | MIC (A. baumannii ATCC 19606) | MIC (E. coli ATCC 25922 [4]) | MIC (C. albicans ATCC 90028) | MIC [5] | Compound | CC50 [2] | HC50 (human erythrocytes; [7]) | HC50 (human erythrocytes; [8]) | further results
32 µg/mL | 64 µg/mL | 32 µg/mL | 32 µg/mL | 32 µg/mL | 16 µg/mL | 128 µg/mL | 32 µg/mL | > 32 µg/mL | > 32 µg/mL | > 32 µg/mL | > 32 µg/mL | > 32 µg/mL | 32 µg/mL | CC(C)CCc1cn(-c2ccccc2OCC(=O)N[C@H](CCCNC(=N)N)Cn2cc(-c3ccc(F)cc3)nn2)nn1.Cl [Compound 12] | > 32 µg/mL | >32 µg/mL | > 32 µg/mL | 
64 µg/mL | > 128 µg/mL | 8 µg/mL | 8 µg/mL | 16 µg/mL | 4 µg/mL | 64 µg/mL | 16 µg/mL | > 32 µg/mL | > 32 µg/mL | > 32 µg/mL | > 32 µg/mL | 32 µg/mL | > 32 µg/mL | CC(C)CCc1cnnn1-c1c(OCC(=O)N[C@H](CCCNC(=N)N)Cn2cc(Cc3ccccc3)nn2)ccc2ccccc12.Cl [Compound 26] | 23.5 µg/mL | >32 µg/mL | > 32 µg/mL | 
16 µg/mL (≈ 21.1 µM) | 16 µg/mL (≈ 21.1 µM) | 8 µg/mL (≈ 10.6 µM) | 8 µg/mL (≈ 10.6 µM) | 8 µg/mL (≈ 10.6 µM) | 16 µg/mL (≈ 21.1 µM) | 128 µg/mL (≈ 169 µM) | 4 µg/mL (≈ 5.28 µM) | 16 µg/mL (≈ 21.1 µM) | 32 µg/mL (≈ 42.3 µM) | 32 µg/mL (≈ 42.3 µM) | 32 µg/mL (≈ 42.3 µM) | 32 µg/mL (≈ 42.3 µM) | 4 to 8 µg/mL (≈ 5.28 to 10.6 µM) | CC(C)CCc1cn(-c2c(OCC(=O)N[C@H](CCCCN)C(=O)N[C@H](CCCNC(=N)N)Cn3cc(CC4CCCCC4)nn3)ccc3ccccc23)nn1 [Compound 41] | 16 µg/mL (≈ 21.1 µM) | 32 µg/mL | 32 µg/mL | MIC (S. aureus NCTC 10442; MRSA / NCTC 10442 / NCTC 104422, Table 2, read-out: MIC S. aureus NCTC 104422): 8 µg/mL (≈ 10.6 µM); HC50 (human erythrocytes; Table 2, footnote says lysis of sheep erythrocytes): 32 µg/mL; MIC (S. aureus ATCC 43300; Table 2): 4 µg/mL (≈ 5.28 µM); MIC C. neoformans var. grubii ATCC 208821 ([5]; Table S1): 4 µg/mL (≈ 5.28 µM)
 |  |  |  |  |  |  |  |  |  |  |  |  |  | colistin [reference compound] |  |  |  | MIC E. coli ATCC 25922 (E. coli ATCC 25922 [1]): 0.125 µg/mL; MIC P. aeruginosa ATCC 27853 (P. aeruginosa ATCC 27853; Table S1): 0.25 µg/mL; MIC K. pneumoniae ATCC 700603 ([3]; Table S1, multi-drug resistant): 0.25 µg/mL; MIC A. baumannii ATCC 19606 (A. baumannii ATCC 19606; Table S1): 0.25 µg/mL; MIC E. coli ATCC 25922 (E. coli ATCC 25922 [4]; Table S1): 0.125 µg/mL
 |  |  |  |  |  |  |  |  |  |  |  |  |  | CC/C(=C(\c1ccccc1)c1ccc(OCCN(C)C)cc1)c1ccccc1 [tamoxifen, reference compound] | 13.1 µg/mL (≈ 35.3 µM) |  |  | 
128 µg/mL | 128 µg/mL | 32 µg/mL | 32 µg/mL | 64 µg/mL | 16 µg/mL | 128 µg/mL | 16 µg/mL | > 32 µg/mL | > 32 µg/mL | > 32 µg/mL | > 32 µg/mL | 32 µg/mL |  | Cl.Cl.N=C(N)NCCC[C@H](Cn1cc(Cc2ccccc2)nn1)NC(=O)[C@@H](CCCCN)NC(=O)COc1ccccc1-c1cn(Cc2ccccc2)nn1 [Compound 46] | > 32 µg/mL | >32 µg/mL | > 32 µg/mL | 
 |  |  |  |  |  |  |  |  |  |  |  | 0.125 µg/mL (≈ 0.408 µM) | 0.25 µg/mL (≈ 0.816 µM) | OC(Cn1cncn1)(Cn1cncn1)c1ccc(F)cc1F [flucona-zole, fluconazole, reference compound] |  |  |  | 
